The record followed here is PubChem BioAssay AID651592 (Sanford-Burnham Center for Chemical Genomics, 2012).

Assay [1] in a line: inhibitors of NFkB activation in CF airway cells, SAR follow-up, KKLEB cells, panel, IL8 HTRF, NFkB-GFP (AID 651592).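 Further: immortalized cystic fibrosis airway epithelial KKLEB cells with an NF-kB GFP reporter.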 Particulars: PAF/TNFa-induced NFkB-GFP / IL8 HTRF, CF-PAF assay. (Time-resolved FRET reads energy transfer from a long-lived donor to a nearby acceptor.)
The subject of a further assay is IL8. The description is as above. Particulars: PAF/TNFa-induced NFkB-GFP / IL8 HTRF, mean of runs, mean IC50 across panel replicates.
For assay [2], the target named is Interleukin-8 (Homo sapiens) (UniProt P10145). The description is as above. The note with it: PAF/TNFa-induced NFkB-GFP / IL8 HTRF.
Sequence of Interleukin-8 (Homo sapiens) (P10145 whole entry, looked up): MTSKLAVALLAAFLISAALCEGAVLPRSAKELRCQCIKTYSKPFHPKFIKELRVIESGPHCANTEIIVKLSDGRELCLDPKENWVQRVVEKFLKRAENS
The mark [3] stands for this setting: mean of runs, mean IC50 across panel replicates.

Bounds are passed on as bounds.

A word on the IC50: it is the concentration needed to halve the response being measured. Lower therefore signals greater potency. Consider `O=C(Nc1ccc(N2CCN(C(=O)c3ccc(F)cc3)CC2)cc1)c1cccc(Br)c1`, for which the IC50 in assay [1] (setting [3]) was 43.9 µM; in assay [1] (run 1), 21.5 µM; in assay [1] (run 2), 21.6 µM; in assay [1] (run 3), 22.5 µM; in assay [1] (run 4), greater than 66 µM; in assay [1] (run 5), greater than 66 µM. The IC50 in assay [1] (run 6) is greater than 66 µM; in the assay with IL8 (PAF-induced), greater than 66 µM; with IL8 (TNFa-induced) it was greater than 66 µM; in assay [2] (IL8, PAF-induced, run 1) it was greater than 66 µM; in assay [2] (IL8, PAF-induced, run 2) it was greater than 66 µM; in assay [2] (IL8, PAF-induced, run 3) it was greater than 66 µM. For the same compound, the IC50 in assay [2] (IL8, PAF-induced, run 4) was greater than 66 µM; in assay [2] (IL8, PAF-induced, run 5), greater than 66 µM; in assay [2] (IL8, PAF-induced, run 6) it was greater than 66 µM; in assay [2] (IL8, TNFa-induced, run 1), greater than 66 µM; in assay [2] (IL8, TNFa-induced, run 2) it was greater than 66 µM; in assay [2] (IL8, TNFa-induced, run 3) it was greater than 66 µM. In addition, the IC50 in assay [2] (IL8, TNFa-induced, run 4) was greater than 66 µM; in assay [2] (IL8, TNFa-induced, run 5), greater than 66 µM; in assay [2] (IL8, TNFa-induced, run 6), greater than 66 µM.
With `O=C(Nc1ccc(N2CCN(C(=O)c3ccccc3Cl)CC2)cc1)c1cccc(Br)c1`, the IC50 in assay [1] (setting [3]) was 39.8 µM; in assay [1] (run 1), greater than 66 µM; in assay [1] (run 2) it was 16.8 µM; in assay [1] (run 3), 24.3 µM; in assay [1] (run 4) it was greater than 66 µM; in assay [1] (run 5), greater than 66 µM. Further, the IC50 is greater than 66 µM in assay [1] (run 6); 55 µM in the assay on IL8 (PAF-induced); greater than 66 µM with IL8 (TNFa-induced); greater than 66 µM in assay [2] (IL8, PAF-induced, run 1); greater than 66 µM in assay [2] (IL8, PAF-induced, run 2); greater than 66 µM in assay [2] (IL8, PAF-induced, run 3). Also, the IC50 in assay [2] (IL8, PAF-induced, run 4) is greater than 66 µM; in assay [2] (IL8, PAF-induced, run 5) it was greater than 66 µM; in assay [2] (IL8, PAF-induced, run 6) it was greater than 66 µM; in assay [2] (IL8, TNFa-induced, run 1), greater than 66 µM; in assay [2] (IL8, TNFa-induced, run 2), greater than 66 µM; in assay [2] (IL8, TNFa-induced, run 3), greater than 66 µM. In addition, the IC50 in assay [2] (IL8, TNFa-induced, run 4) is greater than 66 µM; in assay [2] (IL8, TNFa-induced, run 5), greater than 66 µM; in assay [2] (IL8, TNFa-induced, run 6) it was greater than 66 µM.
`O=C(Nc1ccc(N2CCN(C(=O)c3ccccc3)CC2)cc1)c1cccc(Br)c1`: the IC50 in assay [1] (setting [3]) worked out at 20.5 µM; in assay [1] (run 1), 14.9 µM; in assay [1] (run 2) it was 16.6 µM; in assay [1] (run 3), 19.2 µM; in assay [1] (run 4), 20.7 µM; in assay [1] (run 5), 23.1 µM. The IC50 in assay [1] (run 6) was 28.5 µM; in the assay on IL8 (PAF-induced) it was 47.7 µM; with IL8 (TNFa-induced) it was 47.9 µM; in assay [2] (IL8, PAF-induced, run 1) it was greater than 66 µM; in assay [2] (IL8, PAF-induced, run 2), 4.44 µM; in assay [2] (IL8, PAF-induced, run 3), 17.8 µM. The IC50 in assay [2] (IL8, PAF-induced, run 4) is greater than 66 µM; in assay [2] (IL8, PAF-induced, run 5), greater than 66 µM; in assay [2] (IL8, PAF-induced, run 6), greater than 66 µM; in assay [2] (IL8, TNFa-induced, run 1), greater than 66 µM; in assay [2] (IL8, TNFa-induced, run 2), greater than 66 µM; in assay [2] (IL8, TNFa-induced, run 3), 14.9 µM. Moreover, the IC50 in assay [2] (IL8, TNFa-induced, run 4) is greater than 66 µM; in assay [2] (IL8, TNFa-induced, run 5), greater than 66 µM; in assay [2] (IL8, TNFa-induced, run 6), 8.25 µM.
Take `O=C(Nc1ccc(N2CCN(C(=O)c3ccccc3)CC2)cc1)c1ccccn1`: the IC50 in assay [1] (setting [3]), in assay [1] (run 1), in assay [1] (run 2), in assay [1] (run 3), in assay [1] (run 4) and in assay [1] (run 5) was greater than 66 µM throughout. For the same compound, the half-maximal inhibitory concentration (IC50) in assay [1] (run 6) is greater than 66 µM; in the assay on IL8 (PAF-induced), greater than 66 µM; with IL8 (TNFa-induced) it was greater than 66 µM; in assay [2] (IL8, PAF-induced, run 1), greater than 66 µM; in assay [2] (IL8, PAF-induced, run 2), greater than 66 µM; in assay [2] (IL8, PAF-induced, run 3), greater than 66 µM. Besides, the IC50 in assay [2] (IL8, PAF-induced, run 4) was greater than 66 µM; in assay [2] (IL8, PAF-induced, run 5) it was greater than 66 µM; in assay [2] (IL8, PAF-induced, run 6), greater than 66 µM; in assay [2] (IL8, TNFa-induced, run 1), greater than 66 µM; in assay [2] (IL8, TNFa-induced, run 2), greater than 66 µM; in assay [2] (IL8, TNFa-induced, run 3), greater than 66 µM. Also, the IC50 in assay [2] (IL8, TNFa-induced, run 4) was greater than 66 µM; in assay [2] (IL8, TNFa-induced, run 5), greater than 66 µM; in assay [2] (IL8, TNFa-induced, run 6), greater than 66 µM.
Consider `O=C(Nc1ccc(N2CCN(C(=O)c3ccccc3F)CC2)cc1)c1ccccc1`, for which the IC50 in assay [1] (setting [3]) is 37.5 µM; in assay [1] (run 1), 8.36 µM; in assay [1] (run 2), 9.34 µM; in assay [1] (run 3), 9.4 µM; in assay [1] (run 4), greater than 66 µM; in assay [1] (run 5), greater than 66 µM. Moreover, the IC50 in assay [1] (run 6) is greater than 66 µM; with IL8 (PAF-induced), greater than 66 µM; in the assay on IL8 (TNFa-induced), 55.7 µM; in assay [2] (IL8, PAF-induced, run 1), greater than 66 µM; in assay [2] (IL8, PAF-induced, run 2), greater than 66 µM; in assay [2] (IL8, PAF-induced, run 3), greater than 66 µM. For the same compound, the IC50 in assay [2] (IL8, PAF-induced, run 4) was greater than 66 µM; in assay [2] (IL8, PAF-induced, run 5) it was greater than 66 µM; in assay [2] (IL8, PAF-induced, run 6), greater than 66 µM; in assay [2] (IL8, TNFa-induced, run 1), greater than 66 µM; in assay [2] (IL8, TNFa-induced, run 2) it was greater than 66 µM; in assay [2] (IL8, TNFa-induced, run 3), 4.29 µM. Also, the IC50 in assay [2] (IL8, TNFa-induced, run 4) is greater than 66 µM; in assay [2] (IL8, TNFa-induced, run 5) it was greater than 66 µM; in assay [2] (IL8, TNFa-induced, run 6) it was greater than 66 µM.
Take `Cc1ccc(CNCc2cc3c(C(C)(C)C)nn(-c4ccccc4)c3[nH]c2=O)cc1`: the IC50 is 60 µM in assay [1] (setting [3]); greater than 66 µM in assay [1] (run 1); greater than 66 µM in assay [1] (run 2); greater than 66 µM in assay [1] (run 3); greater than 66 µM in assay [1] (run 4); greater than 66 µM in assay [1] (run 5). The IC50 in assay [1] (run 6) is 30.1 µM; with IL8 (PAF-induced) it was 14.6 µM; with IL8 (TNFa-induced) it was greater than 66 µM; in assay [2] (IL8, PAF-induced, run 1) it was 7.97 µM; in assay [2] (IL8, PAF-induced, run 2) it was 12.8 µM; in assay [2] (IL8, PAF-induced, run 3), 14.6 µM. Moreover, the half-maximal inhibitory concentration (IC50) in assay [2] (IL8, PAF-induced, run 4) is 16.6 µM; in assay [2] (IL8, PAF-induced, run 5) it was 17 µM; in assay [2] (IL8, PAF-induced, run 6) it was 18.6 µM; in assay [2] (IL8, TNFa-induced, run 1), greater than 66 µM; in assay [2] (IL8, TNFa-induced, run 2), greater than 66 µM; in assay [2] (IL8, TNFa-induced, run 3), greater than 66 µM. Moreover, the IC50 was greater than 66 µM in assay [2] (IL8, TNFa-induced, run 4); greater than 66 µM in assay [2] (IL8, TNFa-induced, run 5); greater than 66 µM in assay [2] (IL8, TNFa-induced, run 6).
Turning to `O=C(Nc1ccc(N2CCN(C(=O)c3ccccc3F)CC2)cc1)c1ccncc1`, the IC50 was 31.8 µM in assay [1] (setting [3]); 15.6 µM in assay [1] (run 1); 16.3 µM in assay [1] (run 2); 17.9 µM in assay [1] (run 3); greater than 66 µM in assay [1] (run 4); greater than 66 µM in assay [1] (run 5). Moreover, the IC50 is 8.71 µM in assay [1] (run 6); 55.8 µM with IL8 (PAF-induced); greater than 66 µM with IL8 (TNFa-induced); greater than 66 µM in assay [2] (IL8, PAF-induced, run 1); greater than 66 µM in assay [2] (IL8, PAF-induced, run 2); 55.8 µM in assay [2] (IL8, PAF-induced, run 3). In addition, the IC50 in assay [2] (IL8, PAF-induced, run 4) was greater than 66 µM; in assay [2] (IL8, PAF-induced, run 5) it was greater than 66 µM; in assay [2] (IL8, PAF-induced, run 6), greater than 66 µM; in assay [2] (IL8, TNFa-induced, run 1) it was greater than 66 µM; in assay [2] (IL8, TNFa-induced, run 2), greater than 66 µM; in assay [2] (IL8, TNFa-induced, run 3), greater than 66 µM. For the same compound, the IC50 is greater than 66 µM in assay [2] (IL8, TNFa-induced, run 4); greater than 66 µM in assay [2] (IL8, TNFa-induced, run 5); greater than 66 µM in assay [2] (IL8, TNFa-induced, run 6).
